In PMC9785202, “Changes in Disposition of Ezetimibe and Its Active Metabolites Induced by Impaired Hepatic Function: The Influence of Enzyme and Transporter Activities” (Pharmaceutics, 2022):

Experiments:
OATP1B3 = target: T1, OATP1B3 (Homo sapiens, UniProt Q9NPD5); test: Inhibition of OATP1B3-mediated uptake in OATP1B3-transfected HEK293 cells by bile acids and rifampicin
T1 sequence (Q9NPD5 1-702): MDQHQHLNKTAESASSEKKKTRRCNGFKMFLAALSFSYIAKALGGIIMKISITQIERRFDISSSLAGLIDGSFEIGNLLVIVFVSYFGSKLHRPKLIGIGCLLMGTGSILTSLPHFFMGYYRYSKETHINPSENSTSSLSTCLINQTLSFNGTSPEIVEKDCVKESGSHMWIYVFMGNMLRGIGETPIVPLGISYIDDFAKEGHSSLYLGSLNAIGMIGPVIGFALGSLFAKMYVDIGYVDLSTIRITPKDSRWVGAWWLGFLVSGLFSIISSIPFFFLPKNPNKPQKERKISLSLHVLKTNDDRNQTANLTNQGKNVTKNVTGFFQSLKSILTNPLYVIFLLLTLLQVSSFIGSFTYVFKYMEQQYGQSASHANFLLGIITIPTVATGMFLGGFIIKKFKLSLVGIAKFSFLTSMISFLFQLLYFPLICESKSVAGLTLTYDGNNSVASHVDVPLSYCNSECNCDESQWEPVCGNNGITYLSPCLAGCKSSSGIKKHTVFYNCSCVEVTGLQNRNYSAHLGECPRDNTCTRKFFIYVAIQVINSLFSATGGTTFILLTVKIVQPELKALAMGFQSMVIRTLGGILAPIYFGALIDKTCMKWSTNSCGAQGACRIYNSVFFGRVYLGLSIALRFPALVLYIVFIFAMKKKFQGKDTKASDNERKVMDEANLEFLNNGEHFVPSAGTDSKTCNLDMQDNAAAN

rat primary hepatocytes = test: Inhibition of EZE-Ph uptake into rat primary hepatocytes by bile acids and rifampicin; details: inhibitor 200 µmol/L, 10 μM EZE-Ph, 10 min
Method: Rat primary hepatocytes were isolated from male SD rats as previously described [34]. Fresh rat hepatocytes (120,000 per well) were cultured in Williams’ E medium (containing 0.1 μM dexamethasone, 5% fetal bovine serum, 1% penicillin G/streptomycin, 1% GlutaMAX-I, and 1% insulin–transferrin–selenium) on collagen I-coated 48-well plates. Rat hepatocytes cultured for 4 h under a carbogen atmosphere were directly used for uptake assays.
The hepatocytes were rinsed three times with HBSS (37 °C) and equilibrated in HBSS for 10 min. […] After 10 min of incubation, cells were quickly washed three times with ice-cold HBSS and then lysed by the addition of 300 μL of purified water. The protein content was measured using the BCA protein assay kit. EZE and EZE-Ph were analyzed by LC-MS/MS.
The rates of substrate uptake were normalized using the protein contents of cell lysates.

Compound	IC50 (OATP1B3) [µM]	uptake of estradiol-17β-glucuronide in OATP1B3-expressing HEK293 cells in the presence of inhibitor (OATP1B3; inhibitor 200 μM, substrate estradiol-17β-glucuronide) [%]	EZE-Ph uptake by rat hepatocytes in the presence of inhibitor (rat primary hepatocytes) [%]
C[C@H](CCC(=O)O)[C@H]1CC[C@H]2[C@@H]3[C@H](O)C[C@@H]4C[C@H](O)CC[C@]4(C)[C@H]3C[C@H](O)[C@]12C [CA, cholic acid]	121		
C[C@H](CCC(=O)O)[C@H]1CC[C@H]2[C@@H]3[C@H](O)C[C@@H]4C[C@H](O)CC[C@]4(C)[C@H]3CC[C@]12C [CDCA, chenodeoxycholic acid]	8.92		
CO[C@H]1/C=C/O[C@@]2(C)Oc3c(C)c(O)c4c(O)c(c(/C=N/N5CCN(C)CC5)c(O)c4c3C2=O)NC(=O)/C(C)=C\C=C\[C@H](C)[C@H](O)[C@@H](C)[C@@H](O)[C@@H](C)[C@H](OC(C)=O)[C@@H]1C [rifampicin, reference compound]		3.89	12.0
CC(CCC(=O)NCC(=O)O)C1CCC2C3C(O)CC4CC(O)CCC4(C)C3CCC12C (stereo not drawn) [GCDCA, glycochenodeoxycholic acid]	15.1		
C[C@H](CCC(=O)NCCS(=O)(=O)O)[C@H]1CC[C@H]2[C@@H]3[C@@H](O)C[C@@H]4C[C@H](O)CC[C@]4(C)[C@H]3CC[C@]12C [TUDCA, tauroursodeoxycholic acid]	26		
